Data published in patent US20250269043A1, “TARGETED BIFUNCTIONAL DEGRADERS” (YALE UNIVERSITY, priority 2019, published 2025).
Where “and” joins values, the source holds several entries; their conditions need not be identical. Identical values can stand only once.

Columns and labels:
[1] = Tolerability in mice (body weight, serum AST and ALT); format: in vivo
Procedure: FIGS. 93A-93C illustrate that DNP-GN3 and DNP-OH3 are not toxic to mice at all tested concentrations. FIG. 93A: mouse body weight following treatment with DNP-GN3 or DNP-OH3. Statistical differences were analyzed by T test. FIG. 93B: levels of aspartate transaminase (AST) in treated mice. Dashed lines represent the normal range. FIG. 93C: levels of alanine transaminase (ALT) in treated mice. Dashed lines represent the normal range.

[2] = target: T1, ASGPR on the surface of HepG2 cells and α-DNP antibody (Homo sapiens, UniProt P07306+P07307); experiment: DNP-GN3-mediated ternary complex formation: association of fluorescently labeled α-DNP antibody with HepG2 cells in suspension; format: cell-based; details: for concentration of DNP-GN3 eliciting half-maximal fluorescence association: FIG. 86A
T1 sequence (P07306 1-291): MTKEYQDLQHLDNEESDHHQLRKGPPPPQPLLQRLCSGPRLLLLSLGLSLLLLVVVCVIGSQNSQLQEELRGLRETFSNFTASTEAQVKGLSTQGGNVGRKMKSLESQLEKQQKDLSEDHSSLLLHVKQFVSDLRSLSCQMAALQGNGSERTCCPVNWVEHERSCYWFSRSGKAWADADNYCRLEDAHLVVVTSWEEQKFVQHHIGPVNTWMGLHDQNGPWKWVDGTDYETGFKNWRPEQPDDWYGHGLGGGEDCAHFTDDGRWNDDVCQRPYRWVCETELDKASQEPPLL
T1 sequence (P07307 1-311): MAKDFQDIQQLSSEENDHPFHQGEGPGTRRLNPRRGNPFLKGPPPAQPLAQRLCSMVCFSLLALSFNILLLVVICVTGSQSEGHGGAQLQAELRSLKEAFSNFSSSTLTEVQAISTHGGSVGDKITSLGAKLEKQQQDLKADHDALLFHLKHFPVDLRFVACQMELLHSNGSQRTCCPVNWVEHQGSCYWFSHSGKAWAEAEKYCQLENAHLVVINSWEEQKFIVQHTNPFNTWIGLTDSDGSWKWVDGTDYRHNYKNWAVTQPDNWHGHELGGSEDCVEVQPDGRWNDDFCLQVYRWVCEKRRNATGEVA
Description: It was investigated whether DNP-GN3 could mediate the formation of a ternary complex between a fluorescently labeled α-DNP antibody and ASGPR on the surface of immortalized human hepatocyte HepG2 cells in suspension. […] The observed bell-shaped response to DNP-GN3 concentration is consistent with the prozone effect commonly observed in systems wherein a ternary complex is formed.

HepG2 cells = experiment: Colocalization of endocytosed MIF protein in HepG2 cells; format: cell-based, human; details: MIF 100 nM, MIF-GN3 200 nM; FIG. 133
Procedure: FIG. 133 illustrates that cells treated with MIF-GN3 and exogenous MIF accumulate MIF punctate in cells. […] MIF was present at a concentration of 100 nM, and MIF-GN3 was present at a concentration of 200 nM.
In order to investigate the subcellular localization of endocytosed MIF protein, colocalization studies were performed in HepG2 cells. After 12 hours of MIF-GN mediated endocytosis, several punctae displaying MIF-derived fluorescence were present in each cell.

human MIF = target: T2, human MIF (Homo sapiens, UniProt P14174); experiment: Depletion of human MIF from cell culture supernatant (sandwich ELISA); format: cell-based; details: for removal of MIF from supernatant: after 48 hours, FIG. 129
T2 sequence (P14174 2-115 limits assumed): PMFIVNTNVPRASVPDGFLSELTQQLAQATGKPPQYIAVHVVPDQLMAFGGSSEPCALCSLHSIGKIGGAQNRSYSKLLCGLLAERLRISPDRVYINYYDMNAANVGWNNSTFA
Procedure: The ability of bifunctional MIF-binding molecules to mediate the depletion of human MIF from cell culture was investigated. In these assays, human MIF was present at a concentration of 100 nM, and a sandwich ELISA assay was utilized to measure the concentration of human MIF remaining in the cell culture supernatant. The closely related bifunctional molecules MIF-GN3, MIF-PEG2-GN3, and MIF-PEG4-GN3 were used, as well as the structurally dissimilar molecule MIF-NVS-PEG3-GN3. […] Based on the ease of its synthesis and its efficacy in this experiment, MIF-GN3 was utilized for further studies. It was next investigated whether the MIF inhibitor 3w mediates MIF depletion from cell culture supernatant. […] When cells were treated with 3w, no depletion of exogenous MIF protein was observed after 24 hours (FIG. 128B).
Bifunctional molecules containing optimized ASGPR-binding motifs are also capable of mediating MIF depletion from cell culture supernatant (FIG. 129). The MIF-binding molecule MIF-AF1, which contains only a single ASGPR-binding sugar, was not effective at mediating depletion of MIF from supernatant at any concentration tested. It is hypothesized that this is due to the compound's low predicted affinity for ASGPR (μM range). […] At a concentration of either 200 nM or 1 μM, MIF-AF2 mediated nearly 100%/o depletion of MLF from the cell culture supernatant after 48 hours. […] In contrast to these molecules, which utilize optimized synthetic ASGPR ligands, the GalNAc-based molecule MIF-GN3 mediated only 67.0% and 56.0% removal of MIF from supernatant after 48 hours at concentrations of 1 μM and 200 nM, respectively. […] At a concentration of 40 nM (4.0 pmol of molecule), MIF-AF3 mediates the removal of 83.2% of MIF present in the cell culture supernatant, or 8.32 pmol of human MIF protein. Therefore, it was concluded that under the conditions of this experiment, MIF-AF3 mediates the depletion of 2.08 molar equivalents of MIF protein.

mouse MIF = target: T3, mouse MIF (Mus musculus, UniProt P34884); experiment: Depletion of endogenous mouse MIF in vivo; design: species or system mice; details: single dose of 10 mpk; FIG. 137
T3 construct: mediate the depletion of endogenous mouse MIF in vivo; from tissue; host or cells: mouse serum, in vivo
Procedure: In order to confirm that mice injected with one or ten mpk MIF-GN3 had received the injection, and that the observed stability of MIF concentrations in MIF-GN3 treated mice was not the result of injection error, 200 μg of α-DNP antibody was coinjected with the MIF protein in this experiment. […] An investigation of the ability of MIF-GN3 to mediate the depletion of endogenous mouse MIF in vivo was next undertaken. Mice were treated with either PBS or 10 mpk of MIF-GN3. […] One possible explanation for this finding is that MIF protein may be synthesized rapidly, and any increase in degradation mediated by MIF-GN3 may not be of a large enough magnitude to impact the protein's level in serum.

[3] = Pharmacokinetics of MIF-GN3 in male nude mice; format: in vivo; details: one mpk dose
Description: The ability of MIF-GN3 to mediate the depletion of injected human MIF from serum in mice was studied. First, the pharmacokinetics of the bifunctional molecule were investigated.

In the case of CC(=O)NC1C(OCCOCCOCCNC(=O)CCOCC(COCCC(=O)NCCOCCOCCOC2OC(CO)C(O)C(O)C2NC(C)=O)(COCCC(=O)NCCOCCOCCOC2OC(CO)C(O)C(O)C2NC(C)=O)NC(=O)CNC(=O)COCCOCCOCCNc2ccc([N+](=O)[O-])cc2[N+](=O)[O-])OC(CO)C(O)C1O (stereo not drawn) [DNP-GN3], the “differences in body weight or serum liver enzyme levels between control and treatment groups” value ([1]; doses up to 100 mpk, FIGS. 93A-93C) is reported as “no significant differences”, the well-tolerated dose ([1]; mice) is reported as no more than 100 mpk and the “concentration of maximal ternary complex formation” value ([2]; DNP-GN3) is reported as 20 nM and 40 nM. The “concentration of DNP-GN3 eliciting half-maximal fluorescence association” value ([2]; higher of the two half-maximal concentrations of the bell-shaped response (prozone effect)) was 0.12 µM and the “concentration of DNP-GN3 eliciting half-maximal fluorescence association” value ([2]; lower of the two half-maximal concentrations of the bell-shaped response) was 0.0074 µM.
In the case of CC(=O)N[C@H]1[C@H](OCCOCCOCCNC(=O)CCOCC(COCCC(=O)NCCOCCOCCO[C@@H]2O[C@H](CO)[C@H](O)[C@H](O)[C@H]2NC(C)=O)(COCCC(=O)NCCOCCOCCO[C@@H]2O[C@H](CO)[C@H](O)[C@H](O)[C@H]2NC(C)=O)NC(=O)CNC(=O)CCCOc2ccc3nc(-c4cn(-c5ccc(O)c(F)c5)nn4)ccc3c2)O[C@H](CO)[C@H](O)[C@@H]1O [MIF-GN3], the “colocalization of MIF signal with LAMP2” value (HepG2 cells) is reported as “strong colocalization”, the “removal of MIF from supernatant” value (human MIF; 200 nM) is reported as 56.0% and the “removal of MIF from supernatant” value (human MIF; 1 μM) is reported as 67.0%. For the same compound, the “depletion of human MIF from cell culture supernatant” value (human MIF; human MIF 100 nM, 24 hours, FIG. 128A) was “effective”, the “mouse MIF concentrations in serum” value (mouse MIF) was “No significant decrease” and the half-life in serum [3] was 25.8 min. The “time of maximum plasma concentration” value [3] was 15 min.
